Test [1] deals with Human immunodeficiency virus type 1 reverse transcriptase (Human immunodeficiency virus 1) (UniProt Q72547). The experiment in a line: Inhibition of HIV1 reverse transcriptase at 200 ug/mL.
Test [2] has the same target. The experiment in a line: Inhibition of HIV1 reverse transcriptase.

Two compounds from ChEMBL document CHEMBL1149036, “Swertifrancheside, an HIV-reverse transcriptase inhibitor and the first flavone-xanthone dimer, from Swertia franchetiana” (J Nat Prod, 1994) can be followed below.

SMILES strings stand for the structures. ≈ marks a conversion by molar mass, not a printed value.

Consider `COc1cc(O)c2c(=O)c3c(O)c(-c4c(O)c([C@@H]5O[C@H](CO)[C@@H](O)[C@H](O)[C@H]5O)c(O)c5c(=O)cc(-c6ccc(O)c(O)c6)oc45)cc(O)c3oc2c1`, for which the inhibition (as a rule, the drop in the measured response relative to a control, in per cent) in test [1] is 99.8%. This compound also displayed an ED50 in test [2] of 30.9 µg/mL (≈ 42.9 µM).

The compound `COc1cc(O)c2c(=O)c3c(O)c(-c4c(O)c([C@@H]5O[C@H](CO)[C@@H](O)[C@H](O)[C@H]5O)c(O)c5c(=O)c6cc(O)c(O)cc6oc45)cc(O)c3oc2c1` had an ED50 in test [2] of 3 µg/mL (≈ 4.32 µM).
